From patent publication US7091033B2, “Array of toxicologically relevant canine genes and uses thereof” (Phase-1 Molecular Toxicology, Inc., priority 2000, dated 2006)
Values belong to the molecule of their own block, whether it stands above or below them.

Assays:
[1] = tested on: canine genes in a canine array (Canine kidney); assay: Canine array fold induction of canine genes in kidney of dogs dosed with an agent (Table 11); assay type: in vivo; conditions: Canine kidney, 0.8 mg/kg, 2 days
Source text: (§1) Table 11 depicts the fold induction for canine genes in a canine array.

[2] = tested on: canine genes of the array; assay: Canine array fold induction of canine genes in liver of canines dosed with test agents (Table 11); assay type: in vivo; conditions: dog, 2 mg/kg, 10319, Canine liver, 2 mg/kg, 3 day, gene = c0 of the row
Source text: as §1

[3] = tested on: canine genes of the array; assay: Canine array fold induction of canine genes in kidney of canines dosed with test agents (Table 11); assay type: in vivo; conditions: dog, 2 mg/kg, 10189, Canine kidney, 2 mg/kg, 2 days, gene = c0 of the row
Source text: as §1

[4] = tested on: canine genes differentially expressed in organs (liver, spleen, kidney, testes, heart, thymus); assay: Transcriptome profiling / differential display of tissues from canines exposed to an agent versus vehicle (reverse transcription, PCR, reamplification of bands, sequencing); assay type: in vivo
IL-8 gene expression = assay: Measurement of IL-8 dose response: IL-8 gene expression (fold induction) in MDCK cells dosed with cadmium chloride, cDNA probes on canine array; assay type: cell-based; conditions: MDCK cells dosed for 24 hrs at 0.1 μM, 1 μM, and 10 μM; FIG. 3
Source text: Dosage response is an important concept in toxicology. Depending on the dosage of a toxin or agent which may be toxic, the gene expression profile of a particular gene may vary. One way that this can be envisioned is by observing the changes in fold induction of a particular gene when analyzed using the arrays of this invention. The dosages determined in dose response curves may be useful in determining “threshold” levels of toxicity, for example for FDA approval. Example 15 and FIG. 3 illustrate this embodiment. Methods of analyzing gene expression and how to correlate gene expression data are provided herein.
Fluorescence-labeled first strand cDNA probe was made from total or mRNA by first isolating RNA from control and treated cells, disclosed supra. […]
The volume of each sample that would contain 20 μg of total RNA (or 2 μg of mRNA) was calculated. The amount of DEPC water needed to bring the total volume of each RNA sample to 14 μl was also calculated. […]
Then the appropriate volume of each RNA sample was added to the labeled PCR tube. […] The tubes were kept on ice until all samples are ready for the next step. It is preferable for the tubes to kept on ice until the next step is ready to proceed. The samples were incubated in a PCR machine for 10 minutes at 70° C. followed by 4° C. incubation period until the sample tubes were ready to be retrieved. […]

SMILES: C[C@@H]1[C@H](O)[C@@H](C)/C=C/C=C/C=C/C=C/C=C/C=C/C=C/[C@H](O[C@@H]2O[C@H](C)[C@@H](O)[C@H](N)[C@@H]2O)C[C@@H]2O[C@](O)(C[C@@H](O)C[C@@H](O)[C@H](O)CC[C@@H](O)C[C@@H](O)CC(=O)O[C@H]1C)C[C@H](O)[C@H]2C(=O)O [Amphoteracin B]
BRCA1 fold induction [1]: 1.1
Beta-glucuronidase fold induction [1]: 1.3
CD40 ligand fold induction [1]: 1.4
Catalase fold induction [1]: 1.1
Caveolin-1 fold induction [1]: 1.0
Caveolin-2 fold induction [1]: 1.0
Cytochrome P450 2B fold induction [1]: 1.1
Cytochrome P450 2C21 fold induction [1]: 1.2
Cytochrome P450 2D fold induction [1]: 1.6
GRP94 fold induction [1]: 1.9
Glucose transporter fold induction [1]: 1.2
Glucose-6-phosphatase fold induction [1]: 1.3
Glucose-regulated protein 94 #2 fold induction [1]: 1.1
Glutathione S-transferase alpha subunit fold induction [1]: 1.1
Interleukin-8 fold induction [1]: 1.2
Interleukin-10 fold induction [1]: 1.1
Keratinocyte growth factor fold induction [1]: 1.1
Mek5 fold induction [1]: 1.1
Metallothionein 1 fold induction [1]: 2.1
Multidrug resistant protein-1 fold induction [1]: 1.2
Phase-1 CCT-11 fold induction [1]: 1.3
Phase-1 CCT-61 fold induction [1]: 1.1
Phase-1 CCT-72 fold induction [1]: 1.1
Phase-1 CCT-74 fold induction [1]: 1.1
Phase-1 CCT-76 fold induction [1]: 1.0
Phase-1 CCT-78 fold induction [1]: 1.0
Phase-1 CCT-80 fold induction [1]: 1.9
Phase-1 CCT-81 fold induction [1]: 1.0
Phase-1 CCT-82 fold induction [1]: 1.1
Phase-1 CCT-83 fold induction [1]: 1.1
Phase-1 CCT-87 fold induction [1]: 1.1
Phase-1 CCT-89 fold induction [1]: 1.1
Phase-1 CCT-91 fold induction [1]: 1.2
Phase-1 CCT-93 fold induction [1]: 1.0
Phase-1 CCT-97 fold induction [1]: 1.0
Phenol sulfotransferase fold induction [1]: 1.0
Prostaglandin D synthase fold induction [1]: 1.3
Rab2 fold induction [1]: 1.8
Rab5 fold induction [1]: 1.1
Rab7 fold induction [1]: 2.2
SHB (Src homology 2 protein) fold induction [1]: 1.1
TFCOUP-related (probable steroid hormone receptor) fold induction [1]: 1.1
Tissue inhibitor of metalloproteinases-1 fold induction [1]: 2.5
Tumor necrosis factor-alpha fold induction [1]: 2.0
UV excision repair protein RAD 23 (XP-C) fold induction [1]: 1.0
Ubiquitin fold induction [1]: 1.0
Vascular cell adhesion molecule 1 (VCAM-1) fold induction [1]: 3.5
ZAP36/annexin IV fold induction [1]: 1.4
c-erb B-2 fold induction [1]: 1.3
p38 MAPK fold induction [1]: 1.2
p53 fold induction [1]: 1.4

fold induction at 3 days [2]: 1.1
fold induction at 2 days [3]: 1.1
SMILES: CN(Cc1cnc2nc(N)nc(N)c2n1)c1ccc(C(=O)N[C@@H](CCC(=O)O)C(=O)O)cc1 [Methotrexate]

SMILES: COc1cc([C@@H]2c3cc4c(cc3[C@@H](O[C@@H]3O[C@@H]5CO[C@@H](C)O[C@H]5[C@H](O)[C@H]3O)[C@H]3COC(=O)[C@H]23)OCO4)cc(OC)c1O [Etoposide]
Expression Pattern ([4]; Band # CTP1D, No significant match): upregulated with Etoposide, caffeine
Expression Pattern ([4]; Band # CTP1G, No significant match): upregulated with Etoposide, caffeine
Expression Pattern ([4]; Band # CTP7B, No significant match): upregulated in Etoposide treated
Expression Pattern ([4]; Band # CTP8A, No significant match): repressed in Etoposide treated
Expression Pattern ([4]; Band # CTP8C, Human DNA sequence fn HSJ734P14): repressed in Etoposide treated
Expression Pattern ([4]; Band # CTP10Y, Canis familiaris mitochon CFU96639): upregulated in Etoposide treated
Expression Pattern ([4]; Band # CTP11A, cyclin-dependent kinase i BC001935): upregulated in Etoposide treated
Expression Pattern ([4]; Band # CTP16B, Homo sapiens cDNA FLJAK000548): repressed in Etoposide treated
Expression Pattern ([4]; Band # CTP17G, No significant match): repressed in Etoposide treated
Expression Pattern ([4]; Band # CTP18B, No significant match): upregulated in Etoposide treated
Expression Pattern ([4]; Band # CTP19F, Homo sapiens chromosor AC008651): upregulated in Etoposide treated
Expression Pattern ([4]; Band # CTP34A, Homo sapiens ribosomal NM_001032): repressed in Etoposide

SMILES: [Cl][Cd][Cl] [cadmium chloride]
IL-8 gene expression, fold induction (IL-8 gene expression): fold induction varies with the dosage

SMILES: COc1cc([C@@H]2c3cc4c(cc3[C@@H](O[C@@H]3O[C@@H]5CO[C@@H](C)O[C@H]5[C@H](O)[C@H]3O)[C@H]3COC(=O)[C@H]23)OCO4)cc(OC)c1O [etoposide]
Expression Pattern ([4]; Band # CTP3B, Homo Sapien N-myc dow BC003175, larger band of doublet): doublet-larger band is upregulated
Expression Pattern ([4]; Band # CTP27C, Homo sapiens CTCL turn AF177227): repressed with etoposide and aspirin
Expression Pattern ([4]; Band # CTP37A, Homo sapiens nuclear fax AF167569): repressed with etoposide
Expression Pattern ([4]; Band # CTP143B, No significant match): induced with etoposide and caffeine
Expression Pattern ([4]; Band # CTP150A, No significant match): repressed with etoposide
Expression Pattern ([4]; Band # CTP150C, Canis familiaris mitochon CFU96639): repressed with etoposide
Expression Pattern ([4]; Band # CTP156J, Human DNA sequence fn AL136120): induced with etoposide and caffeine
Expression Pattern ([4]; Band # CTP216A, Canis familiaris heat-shoc U19368): repressed with etoposide

SMILES: C[C@@H]1[C@H](O)[C@@H](C)/C=C/C=C/C=C/C=C/C=C/C=C/C=C/[C@H](O[C@@H]2O[C@H](C)[C@@H](O)[C@H](N)[C@@H]2O)C[C@@H]2O[C@](O)(C[C@@H](O)C[C@@H](O)[C@H](O)CC[C@@H](O)C[C@@H](O)CC(=O)O[C@H]1C)C[C@H](O)[C@H]2C(=O)O [Amphoteracin-B]
BR-cadherin fold induction [1]: 1.0
Beta-glucuronidase fold induction [1]: 1.1
CD40 ligand fold induction [1]: 2.2
Catalase fold induction [1]: 1.6
Caveolin-1 fold induction [1]: 1.2
Caveolin-2 fold induction [1]: 2.1
Cytochrome P450 2B fold induction [1]: 1.1
Cytochrome P450 2C41 fold induction [1]: 1.2
Cytochrome P450 2D fold induction [1]: 1.6
Cytochrome P450 3A fold induction [1]: 1.2
GRP94 fold induction [1]: 1.2
Glucose transporter fold induction [1]: 1.3
Glucose-regulated protein 94 #1 fold induction [1]: 1.2
Glucose-regulated protein 94 #2 fold induction [1]: 1.1
Glutathione S-transferase alpha subunit fold induction [1]: 1.8
Interleukin-8 fold induction [1]: 1.2
Interleukin-10 fold induction [1]: 5.9
Keratinocyte growth factor fold induction [1]: 1.6
Mek5 fold induction [1]: 1.2
Metallothionein 1 fold induction [1]: 3.1
Paraoxonase2 (PON2) fold induction [1]: 2.1
Phase-1 CCT-11 fold induction [1]: 1.1
Phase-1 CCT-59 fold induction [1]: 1.1
Phase-1 CCT-60 fold induction [1]: 1.3
Phase-1 CCT-63 fold induction [1]: 1.1
Phase-1 CCT-65 fold induction [1]: 1.1
Phase-1 CCT-66 fold induction [1]: 1.1
Phase-1 CCT-68 fold induction [1]: 1.1
Phase-1 CCT-72 fold induction [1]: 1.1
Phase-1 CCT-73 fold induction [1]: 1.1
Phase-1 CCT-74 fold induction [1]: 1.1
Phase-1 CCT-78 fold induction [1]: 1.1
Phase-1 CCT-84 fold induction [1]: 1.5
Phase-1 CCT-87 fold induction [1]: 1.0
Phase-1 CCT-91 fold induction [1]: 1.5
Phase-1 CCT-92 fold induction [1]: 1.4
Phase-1 CCT-94 fold induction [1]: 1.1
Phenol sulfotransferase fold induction [1]: 5.3
Prostaglandin D synthase fold induction [1]: 1.4
Rab2 fold induction [1]: 1.1
Rab5 fold induction [1]: 1.1
Rab7 fold induction [1]: 1.1
SHB (Src homology 2 protein) fold induction [1]: 1.2
Tumor necrosis factor-alpha fold induction [1]: 3.5
UV excision repair protein RAD 23 (XP-C) fold induction [1]: 1.1
Ubiquitin fold induction [1]: 1.3
ZAP36/annexin IV fold induction [1]: 1.1
c-erb B-2 fold induction [1]: 1.2
p53 fold induction [1]: 1.2
